US20200187502A1, “MICROBIOCIDAL OXADIAZOLE DERIVATIVES” (SYNGENTA PARTICIPATIONS AG, priority 2017, published 2020)

Tests used:
[1] = test system: Puccinia recondita f. Sp. Tritici; assay: Fungicidal activity, wheat leaf disc preventative (brown rust); type: in vivo; conditions: foliar, 200 ppm in the applied formulation, wheat leaf segments cv. Kanzler, compared to untreated control, 7 to 9 days after application, read-out: disease control
Summary of the method: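 Preventative leaf-segment test: spray application of diluted formulated compound on wheat cv. Kanzler, spore inoculation after 1 day. Percent control relative to untreated segments rated 7 to 9 days post-application, with incubation at 19° C, 75% relative humidity, 12 h photoperiod.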

[2] = test system: Puccinia recondita f. Sp. Tritici; assay: Fungicidal activity, wheat leaf disc curative (brown rust); type: in vivo; conditions: foliar, 200 ppm in the applied formulation, wheat leaf segments cv. Kanzler, curative (applied 1 day after inoculation), compared to untreated control, 6 to 8 days after application, read-out: disease control
Summary of the method: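 Curative leaf-segment test, cv. Kanzler: spore inoculation, dark storage 19° C/75% RH, compound spray 1 day post-inoculation. Then 12 h light/12 h dark, 19° C, 75% RH. Read-out: % disease control vs untreated check, 6–8 d after application.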

Phakopsora pachyrhizi = assay: Fungicidal activity, soybean leaf disc preventative (Asian soybean rust); type: in vivo; conditions: foliar, 200 ppm in the applied formulation, soybean leaf disks, compared to untreated control, 12 to 14 days after application, read-out: disease control
Summary of the method: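 Read-out is percent disease control relative to untreated check discs, assessed once untreated discs show adequate disease, 12 to 14 days after application. Compounds, tested at 200 ppm in the applied formulation, are sprayed onto soybean leaf discs one day before inoculation with a spore suspension.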

[3] = test system: Glomerella lacenarium (Colletotrichum lacenarium); assay: Fungicidal activity, liquid culture, cucumber preventative (anthracnose); type: cell-based; conditions: 20 ppm in the applied formulation, liquid culture in PDB, inhibition of growth measured photometrically 3 to 4 days after application, compared to untreated control, read-out: disease control
Summary of the method: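 PDB broth seeded with cryo-stored conidia, added onto compound (DMSO solution) in 96-well plates; 24° C.; photometric growth read at 3–4 d post-application; % inhibition vs untreated check.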

CON(Cc1ccc(-c2noc(C(F)(F)F)n2)s1)C(=O)C1(C)COC1 [Compound 1.16, N-methoxy-3-methyl-N-[[5-[5-(trifluoromethyl)-1,2,4-oxadiazol-3-yl]-2-thienyl]methyl]oxetane-3-carboxamide]
≥ 80%: pest or weed control at 200 ppm [1] | pest or weed control at 200 ppm [2] | pest or weed control at 200 ppm (Phakopsora pachyrhizi) | inhibition of growth at 20 ppm [3]

CCC(C)C(=O)NCc1ccc(-c2noc(C(F)(F)F)n2)s1 (stereo not drawn) [Compound 2.7, 2-methyl-N-[[5-[5-(trifluoromethyl)-1,2,4-oxadiazol-3-yl]-2-thienyl]methyl]butanamide]
≥ 80%: pest or weed control at 200 ppm [1] | pest or weed control at 200 ppm [2] | pest or weed control at 200 ppm (Phakopsora pachyrhizi) | inhibition of growth at 20 ppm [3]

COCCC(=O)N(Cc1ccc(-c2noc(C(F)(F)F)n2)s1)OCC(F)F [Compound 4.64, N-(2,2-difluoroethoxy)-3-methoxy-N-[[5-[5-(trifluoromethyl)-1,2,4-oxadiazol-3-yl]-2-thienyl]methyl]propanamide]
≥ 80%: pest or weed control at 200 ppm [1] | pest or weed control at 200 ppm [2] | pest or weed control at 200 ppm (Phakopsora pachyrhizi) | inhibition of growth at 20 ppm [3]

O=C(CC1CC1)NCc1ccc(-c2noc(C(F)(F)F)n2)s1 [Compound 3.10, 2-cyclopropyl-N-[[5-[5-(trifluoromethyl)-1,2,4-oxadiazol-3-yl]-2-thienyl]methyl]acetamide]
≥ 80%: pest or weed control at 200 ppm [1] | pest or weed control at 200 ppm [2] | pest or weed control at 200 ppm (Phakopsora pachyrhizi) | inhibition of growth at 20 ppm [3]

COCCNC(=O)N(C)Cc1ccc(-c2noc(C(F)(F)F)n2)s1 [Compound 4.78, 3-(2-methoxyethyl)-1-methyl-1-[[5-[5-(trifluoromethyl)-1,2,4-oxadiazol-3-yl]-2-thienyl]methyl]urea]
≥ 80%: pest or weed control at 200 ppm [1] | pest or weed control at 200 ppm [2] | pest or weed control at 200 ppm (Phakopsora pachyrhizi) | inhibition of growth at 20 ppm [3]

COCCC(=O)N(C)Cc1ccc(-c2noc(C(F)(F)F)n2)s1 [Compound 4.35, 3-methoxy-N-methyl-N-[[5-[5-(trifluoromethyl)-1,2,4-oxadiazol-3-yl]-2-thienyl]methyl]propanamide]
≥ 80%: pest or weed control at 200 ppm [1] | pest or weed control at 200 ppm [2] | pest or weed control at 200 ppm (Phakopsora pachyrhizi) | inhibition of growth at 20 ppm [3]

O=C(NC1CC1)N(Cc1ccc(-c2noc(C(F)(F)F)n2)s1)C1CC1 [Compound 5.62, 1,3-dicyclopropyl-1-[[5-[5-(trifluoromethyl)-1,2,4-oxadiazol-3-yl]-2-thienyl]methyl]urea]
≥ 80%: pest or weed control at 200 ppm [1] | pest or weed control at 200 ppm [2] | pest or weed control at 200 ppm (Phakopsora pachyrhizi) | inhibition of growth at 20 ppm [3]

CC(=O)NCC(=O)N(C)Cc1ccc(-c2noc(C(F)(F)F)n2)s1 [Compound 4.33, 2-acetamido-N-methyl-N-[[5-[5-(trifluoromethyl)-1,2,4-oxadiazol-3-yl]-2-thienyl]methyl]acetamide]
≥ 80%: pest or weed control at 200 ppm [1] | pest or weed control at 200 ppm [2] | pest or weed control at 200 ppm (Phakopsora pachyrhizi) | inhibition of growth at 20 ppm [3]

CNC(=O)N(Cc1ccc(-c2noc(C(F)(F)F)n2)s1)OCC(F)F [Compound 4.19, 1-(2,2-difluoroethoxy)-3-methyl-1-[[5-[5-(trifluoromethyl)-1,2,4-oxadiazol-3-yl]-2-thienyl]methyl]urea]
≥ 80%: pest or weed control at 200 ppm [1] | pest or weed control at 200 ppm [2] | pest or weed control at 200 ppm (Phakopsora pachyrhizi) | inhibition of growth at 20 ppm [3]
